In patent US8946446B2, “Pyrrolo sulfonamide compounds for modulation of orphan nuclear receptor RAR-related orphan receptor-γ (ROR-γ, NR1F3) activity and for the treatment of chronic inflammatory and autoimmune diseases” (Phenex Pharmaceuticals AG, priority 2011, dated 2015) one finds IC50 data, which are given here for 37 compounds.

The structures appear in SMILES notation. pIC50: −log10 of the molar value.

One assay addresses T1, RORγ ligand binding domain (LBD) (Homo sapiens, UniProt P51449).
T1 construct: made in house; host or cells: E. coli BL-21 (BL3), vector pDEST15
T1 sequence (P51449 269-508 limits assumed): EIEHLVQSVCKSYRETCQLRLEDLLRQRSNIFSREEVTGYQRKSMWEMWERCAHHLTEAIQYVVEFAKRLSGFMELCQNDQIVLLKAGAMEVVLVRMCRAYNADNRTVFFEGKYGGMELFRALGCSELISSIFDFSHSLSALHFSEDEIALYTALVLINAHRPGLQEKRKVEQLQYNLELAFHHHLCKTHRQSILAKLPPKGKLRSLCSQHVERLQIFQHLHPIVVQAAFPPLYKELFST
Description: TR-FRET Activity Assay (ligand sensing, RORγ-LBD / coactivator peptide interaction). It counts as biochemical.
Conditions: not given
The source says:
This method measures the ability of putative ligands to modulate the interaction between the purified bacterial expressed RORγ ligand binding domain (LBD) and synthetic N-terminally biotinylated peptides which are derived from nuclear receptor coactivator proteins such as but not limited to SRC1 (NcoA1), SRC2 (NcoA2, TIF2), SRC3 (NcoA3), PGC1α, PGC1β, CBP, GRIP1, TRAP220, RIP140.
The ligand-binding domain (LBD) of RORγ was expressed as fusion protein with GST in […] cells using the vector pDEST15. Cells were lysed by lysozyme-treatment and sonication, and the fusion proteins purified over glutathione sepharose (Pharmacia) according to the manufacturers instructions. For screening of compounds for their influence on the RORγ-peptide interaction, the LANCE technology (Perkin Elmer) was applied. This method relies on the binding dependent energy transfer from a donor to an acceptor fluorophor attached to the binding partner of interest. For ease of handling and reduction of background from compound fluorescence LANCE technology makes use of generic fluorophore labels and time resolved detection assays were done in a final volume of 25 μL in a 384 well plate, in a Tris-based buffer system (20 mM Tris-HCl pH6.8; 60 mM KCl, 1 mM DTT; 5 mM MgCl2; 35 ng/μL BSA), containing 20-60 ng/well recombinantly expressed RORγ-LBD fused to GST, 200-600 nM N-terminally biotinylated peptide, 200 ng/well Streptavidin-xIAPC conjugate (Prozyme) and 6-10 ng/well Eu W1024-antiGST (Perkin Elmer). DMSO content of the samples was kept at 1%.
After generation of the Tris-based buffer system, the potentially RORγ modulating ligands were diluted. […] The LANCE signal was detected by a Perkin Elmer EnVision™ Multilabel Counter. The results were visualized by plotting the ratio between the emitted light at 665 nm and 615 nm. […] Ligands that promote the complex formation induce a concentration-dependent increase in time-resolved fluorescent signal.
The normalised TR-FRET assay values, using the following equation: 1000*665 nm measurement value/615 nm measurement value, were transferred to the program GraphPad Prism to generate graphs and dose response curves using the following equation:
Equation: Sigmoidal Dose-Response (Variable Slope) Y=Bottom+(Top-Bottom)/(1+10^((LogEC50−X)*HillSlope)) X is the logarithm of the concentration. Y is the response. Y starts at Bottom and goes to Top with a sigmoidal shape.
This is identical to the “four parameter logistic equation”. The IC50 values are calculated using this equation.
(Time-resolved FRET reads energy transfer from a long-lived donor to a nearby acceptor.)
For the compound `CCNS(=O)(=O)c1cc(-c2cc(C(C)(C)C)cc(C(C)(C)C)c2)n(CC2CCCCC2)c1C` [Example 2, 1-(Cyclohexylmethyl)-5-(3,5-di-tert-butylphenyl)-N-ethyl-2-methyl-1H-pyrrole-3-sulfonamide], the pIC50 (as a rule, the IC50 on a negative log10 scale, so that one unit is a factor of ten) was more than 6.30.
Still for that read-out and setting: the same measure for `Cc1c(S(N)(=O)=O)cc(-c2cc3c(c(C(C)(C)C)c2)OCC(=O)N3C(C)C)n1CC1CCCCC1` [12/10]: 5.70 to 6.30.
Same read-out and setting: the same measure for `Cc1c(S(N)(=O)=O)cc(-c2cc(C(C)(C)C)cc(C(C)(C)C)c2)n1CC1CCCCO1` (stereo not shown) [1/21]: 5.70 to 6.30; for `COCCNS(=O)(=O)c1cc(-c2cc(C(C)(C)C)cc(C(C)(C)C)c2)n(CC2CCCCC2)c1C` [Example 2/1]: more than 6.30.
As for `Cc1c(S(N)(=O)=O)cc(-c2cc(C(C)(C)C)c(OCCO)c(C(C)(C)C)c2)n1CC1CCCCC1` [16/8], the pIC50 is 5.70 to 6.30.

The assay is the same for the next values; noted with them: read-out: RORγ activity in the TR-FRET Activity Assay (IC50 FRET), Group.
Take `Cc1ccc2c(-c3cc(S(N)(=O)=O)c(C)n3CC3CCCCC3)cn(S(=O)(=O)N3CCCCC3)c2c1` [1/35]: the pIC50 is more than 6.30.
The same measure, in the same setting: then `Cc1c(S(N)(=O)=O)c(C)n(CC2CCCCC2)c1-c1cc(C(C)(C)C)cc(C(C)(C)C)c1` [12/8], with 5.70 to 6.30; and `Cc1c(S(N)(=O)=O)cc(-c2cnc(OCC(C)(C)C)c(C(F)(F)F)c2)n1CC1CCCCC1` [34/4], with less than 5.70; and `Cc1c(S(N)(=O)=O)cc(-c2cc(C(C)(C)C)cc(C(C)(C)CF)c2)n1CC1CCCCC1` [12/26], with less than 5.70.
Still for that read-out and setting: then `CC(C)(C)c1cc(-c2cc(S(N)(=O)=O)c(C#N)n2CC2CCCCC2)cc(C(C)(C)C)c1` [Example 33, 2-Cyano-1-(cyclohexylmethyl)-5-(3,5-di-tert-butylphenyl)-1H-pyrrole-3-sulfonamide], with more than 6.30.
On the same count and under the same terms, then `CC(C)(C)c1cc(-c2cc(S(N)(=O)=O)c(Cl)n2CC2CCCCC2)cc(C(C)(C)C)c1` [Example 29, 2-Chloro-1-(cyclohexylmethyl)-5-(3,5-di-tert-butylphenyl)-1H-pyrrole-3-sulfonamide], with more than 6.30; and `Cc1c(S(N)(=O)=O)cc(-c2cc(C(C)(C)C)cc(S(=O)(=O)NC(C)(C)C)c2)n1CC1CCCCC1` [22/3], with less than 5.70.
In the case of `Cc1c(S(N)(=O)=O)cc(-c2ccc(N3CCOCC3)c(C(C)(C)C)c2)n1CC1CCCCC1` [12/34], the negative logarithm of the IC50 (pIC50) is 5.70 to 6.30.
In the case of `Cc1c(S(N)(=O)=O)cc(-c2cc(C(C)(C)O)c3c(c2)C2(CCO3)CC2)n1CC1CCCCC1` [Example 37, 1-(Cyclohexylmethyl)-5-(8-(2-hydroxypropan-2-yl)spiro[chroman-4,1′-cyclopropan]-6-yl)-2-methyl-1H-pyrrole-3-sulfonamide], the pIC50 is less than 5.70.
For `Cc1c(S(N)(=O)=O)cc(-c2ccc(S(=O)(=O)N(C)C(C)(C)C)c(C(C)(C)C)c2)n1CC1CCCCC1` [22/2], the pIC50 is more than 6.30.
The same measure, in the same setting: the same measure for `Cc1c(S(=O)(=O)NCCN2CCOCC2)cc(-c2cc(C(C)(C)C)cc(C(C)(C)C)c2)n1CC1CCCCC1` [2/6]: more than 6.30; for `Cc1c(S(N)(=O)=O)cc(-c2cc(C(C)(C)C)cc(C3(C)CC3)c2)n1CC1CCCCC1` [12/33]: more than 6.30.
Regarding `Cc1c(S(N)(=O)=O)cc(-c2cn(S(=O)(=O)c3ccccc3)c3ccccc23)n1CC1CCCCC1` [1/19], the pIC50 is 5.70 to 6.30.
Still for that read-out and setting: the same measure for `Cc1c(S(N)(=O)=O)cc(-c2cc(C(C)(C)C)nc(C(C)(C)C)c2)n1CC1CCCCC1` [Example 18, 1-(Cyclohexylmethyl)-5-(2,6-di-tert-butylpyridin-4-yl)-2-methyl-1H-pyrrole-3-sulfonamide]: more than 6.30.
On the same count and under the same terms, then `Cc1c(S(N)(=O)=O)cc(-c2cc(C(C)(C)C)cc(C(C)(C)C)c2)n1CC1CCC1` [1/39], with 5.70 to 6.30; and `Cc1c(S(N)(=O)=O)cc(-c2cn(S(=O)(=O)NC3CCCCC3)c3ccccc23)n1CC1CCCCC1` [1/34], with 5.70 to 6.30; and `Cc1c(S(N)(=O)=O)cc(-c2ccc(S(=O)(=O)N3CCCC(C)C3)c(C(C)(C)C)c2)n1CC1CCCCC1` (stereo not shown) [1/27], with more than 6.30.
On the same count and under the same terms, the same measure for `Cc1c(S(=O)(=O)N2CCOCC2)cc(-c2cc(C(C)(C)C)cc(C(C)(C)C)c2)n1CC1CCCCC1` [Example 44, 4-((1-(Cyclohexylmethyl)-5-(3,5-di-tert-butylphenyl)-2-methyl-1H-pyrrol-3-yl)sulfonyl)morpholine]: more than 6.30.
As to `Cc1c(S(N)(=O)=O)cc(-c2ccc(S(=O)(=O)NC(C)(C)C)c(C3(C)CC3)c2)n1CC1CCCCC1` [22/18], the pIC50 was more than 6.30.
Still for that read-out and setting: then `CC(=O)NCC(C)(C)c1cc(-c2cc(S(N)(=O)=O)c(C)n2CC2CCCCC2)cc(C(C)(C)C)c1` [Example 49, N-(2-(3-(tert-Butyl)-5-(1-(cyclohexylmethyl)-5-methyl-4-sulfamoyl-1H-pyrrol-2-yl)phenyl)-2-methylpropyl)acetamide], with less than 5.70.
For `Cc1c(S(N)(=O)=O)cc(-c2cc(C(F)(F)F)c(=O)n(CC(C)(C)C)c2)n1CC1CCCCC1` [Example 34, 1-(Cyclohexylmethyl)-2-methyl-5-(1-neopentyl-6-oxo-5-(trifluoromethyl)-1,6-dihydropyridin-3-yl)-1H-pyrrole-3-sulfonamide], the pIC50 is less than 5.70.
Regarding `COCC(C)(C)NS(=O)(=O)c1ccc(-c2cc(S(N)(=O)=O)c(C)n2CC2CCCCC2)cc1C(F)(F)F` [12/32], the pIC50 was 5.70 to 6.30.
For the compound `Cc1c(S(N)(=O)=O)cc(-c2cc(C(F)(F)F)c3ncccc3c2)n1CC1CCCCC1` [1/16], the pIC50 is less than 5.70.
The same measure, in the same setting: the same measure for `Cc1c(S(=O)(=O)NCCC(=O)O)cc(-c2cc(C(C)(C)C)cc(C(C)(C)C)c2)n1CC1CCCCC1` [Example 39, 3-(1-(Cyclohexylmethyl)-5-(3,5-di-tert-butylphenyl)-2-methyl-1H-pyrrole-3-sulfonamido)propanoic acid]: 5.70 to 6.30; for `CC(C)(C)c1cc(-c2c(Cl)c(S(N)(=O)=O)c(Cl)n2CC2CCCCC2)cc(C(C)(C)C)c1` [Example 30, 2,4-Dichloro-1-(cyclohexylmethyl)-5-(3,5-di-tert-butylphenyl)-1H-pyrrole-3-sulfonamide]: 5.70 to 6.30; for `CNC(=O)COc1c(C(C)(C)C)cc(-c2cc(S(N)(=O)=O)c(C)n2CC2CCCCC2)cc1C(C)(C)C` [16/10]: less than 5.70.
Same read-out and setting: then `Cc1c(S(N)(=O)=O)cc(-c2ccc(S(=O)(=O)NC(C)(C)C)c(C(F)(F)F)c2)n1CC1CCCCC1` [22/5], with more than 6.30; and `Cc1c(S(N)(=O)=O)cc(-c2cc(C(C)(C)C)cc(C(C)(C)CNC(=O)C3CC3)c2)n1CC1CCCCC1` [49/2], with less than 5.70; and `Cc1c(S(N)(=O)=O)cc(-c2cc(OCCCC(=O)O)cc(C(C)(C)C)c2)n1CC1CCCCC1` [Example 16, 4-(3-(tert-Butyl)-5-(1-(cyclohexylmethyl)-5-methyl-4-sulfamoyl-1H-pyrrol-2-yl)phenoxy)butanoic acid], with less than 5.70.
Still for that read-out and setting: the same measure for `CC(=O)c1cc(-c2cc(S(N)(=O)=O)c(C)n2CC2CCCCC2)cc(C(C)(C)C)c1` [12/27]: less than 5.70; for `Cc1c(S(N)(=O)=O)cc(-c2cnc(NCC(C)(C)C)c(C(F)(F)F)c2)n1CC1CCCCC1` [34/5]: 5.70 to 6.30; for `Cc1c(S(N)(=O)=O)cc(-c2cc(C(C)(C)C)c(C(=O)O)c(C(C)(C)C)c2)n1CC1CCCCC1` [Example 8, 2,6-Di-tert-butyl-4-(1-(cyclohexylmethyl)-5-methyl-4-sulfamoyl-1H-pyrrol-2-yl)benzoic acid]: less than 5.70.
